This note sets out measurements from patent publication US9670162B2, “Mitochondrial aldehyde dehyrogenase-2 modulators and methods of use thereof” (The Board of Trustees of the Leland Stanford Junior …, priority 2013, dated 2017).

Residue numbers refer to the chain shown, from its start.

By fraction unbound is commonly meant free concentration divided by total concentration. As a reminder, the Papp A→B is the apparent permeability from the apical to the basolateral side of a cell layer. As usually defined, the Papp B→A is how fast a substance crosses the layer from the basolateral side. Broadly, the inhibition is how much of the control response was suppressed. By logD is commonly meant lipophilicity at a set pH, counting ionised and neutral species.

One data set can be described thus: NHPLM stability T1/2. It counts as in vitro ADME. The following applies: monkey, liver microsomes. Here is the method: (§1) In vitro ADMET of compounds of the present disclosure was carried out according to known methods in the art. Below are data for certain compounds of the present disclosure.
The nature of data set [1]: Plasma protein binding (PPB), rat. Type of data set: in vitro ADME. Here is the method:
as §1

The target in data set [2] is T1, human ALDH2*2 recombinant mutant enzyme (E487K) (Homo sapiens, UniProt P05091, E504K).
T1 construct: His-tag (pTrcHis vector) (N); made in house; host or cells: E. coli BL21
T1 sequence (P05091 18-517 E504K): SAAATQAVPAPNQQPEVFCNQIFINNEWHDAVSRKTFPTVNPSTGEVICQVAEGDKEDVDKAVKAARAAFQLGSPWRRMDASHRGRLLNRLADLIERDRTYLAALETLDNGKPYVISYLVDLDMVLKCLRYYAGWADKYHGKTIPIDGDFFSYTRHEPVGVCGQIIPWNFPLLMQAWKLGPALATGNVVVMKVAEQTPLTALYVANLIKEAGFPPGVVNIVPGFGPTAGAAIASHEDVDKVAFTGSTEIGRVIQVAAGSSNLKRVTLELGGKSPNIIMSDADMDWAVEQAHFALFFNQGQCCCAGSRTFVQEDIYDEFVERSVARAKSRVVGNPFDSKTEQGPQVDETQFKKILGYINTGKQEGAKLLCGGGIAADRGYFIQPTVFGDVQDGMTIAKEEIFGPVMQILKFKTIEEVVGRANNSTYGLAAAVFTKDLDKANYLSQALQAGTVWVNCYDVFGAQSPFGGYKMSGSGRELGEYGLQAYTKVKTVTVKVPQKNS
Kind of data set: ALDH2 enzymatic assay (NADH at 340 nm), recombinant mutant enzyme. It counts as biochemical. More on the design: key: −: no activation or inhibition; +: activation less than control 1; ++: activation similar to control 1, within 10%; +++: activation more than control 1 and less than control (compound 161); ++++: activation similar to compound 161, within 10%. The note with it: activation relative to benchmarks control 1 and compound 161.

The nature of a further data set: HLM stability T1/2. Type of data set: in vitro ADME. The note with it: human, liver microsomes; read-out: HLM T1/2. The method, then:
as §1
On the technique in general: Liver microsomes are vesicles of endoplasmic reticulum, rich in cytochrome P450 enzymes.

A further data set is described as follows: MLM stability T1/2. Type of data set: in vitro ADME. The following applies: mouse, liver microsomes. Here is the method: as §1
The nature of another data set: Caco-2 permeability. Type of data set: in vitro ADME. The following applies: human. Here is the method:
as §1
(Caco-2 cells form a polarised layer with tight junctions and transporters.)

A further data set in a line: Aqueous solubility. It counts as physicochemical. The method, then:
as §1

A short description of a further data set: Plasma stability, rat. It counts as in vitro ADME. The method, then: as §1
A short description of data set [3]: Plasma protein binding (PPB), human. Type of data set: in vitro ADME. Here is the method:
as §1

The target in a further data set is CYP2C9 (Homo sapiens, UniProt P11712). The data set can be described thus: Cyp inhibition 2C9. It counts as in vitro ADME. The method, then:
as §1

The next data set can be described thus: RLM stability T1/2. Type of data set: in vitro ADME. The following applies: rat, liver microsomes. The method, then:
as §1

The target of a further data set is T2, CYP1A2 (Homo sapiens, UniProt P05177).
T2 sequence (P05177 1-516): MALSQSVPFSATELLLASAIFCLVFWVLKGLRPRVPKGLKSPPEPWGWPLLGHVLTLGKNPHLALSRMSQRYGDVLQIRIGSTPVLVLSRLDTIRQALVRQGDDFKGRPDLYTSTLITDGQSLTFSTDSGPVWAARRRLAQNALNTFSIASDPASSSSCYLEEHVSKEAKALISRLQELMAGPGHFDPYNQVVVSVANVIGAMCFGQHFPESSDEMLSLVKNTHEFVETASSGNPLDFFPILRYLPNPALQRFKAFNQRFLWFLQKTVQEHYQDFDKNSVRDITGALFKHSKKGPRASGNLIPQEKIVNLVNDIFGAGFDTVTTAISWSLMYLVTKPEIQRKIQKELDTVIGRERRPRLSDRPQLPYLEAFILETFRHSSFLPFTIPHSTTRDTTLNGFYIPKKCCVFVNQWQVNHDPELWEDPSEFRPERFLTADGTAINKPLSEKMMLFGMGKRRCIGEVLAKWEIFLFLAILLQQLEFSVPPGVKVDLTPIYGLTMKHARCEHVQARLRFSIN
Kind of data set: Cyp inhibition 1A2. Type of data set: in vitro ADME. The note with it: 10 μM. Here is the method:
as §1

In a further data set the target is CYP2C19 (Homo sapiens, UniProt P33261). Kind of data set: Cyp inhibition 2C19. Type of data set: in vitro ADME. The note with it: 10 μM. The method, then: as §1
The next data set in a line: LogD (pH 7.4). Type of data set: physicochemical. The method, then: as §1
Another data set has as its target CYP2D6 (Homo sapiens, UniProt P10635). Kind of data set: Cyp inhibition 2D6. Type of data set: in vitro ADME. The method, then:
as §1

The target in another data set is CYP3A4 (Homo sapiens, UniProt P08684). Kind of data set: Cyp inhibition 3A4. The note with it: 10 μM. Type of data set: in vitro ADME. Here is the method: as §1
A further data set addresses T3, human ALDH2 wild type (Homo sapiens, UniProt P05091).
T3 construct: His-tag (pTrcHis vector) (N); made in house; host or cells: E. coli BL21
T3 sequence (P05091 18-517): T1 sequence (P05091 18-517 E504K) with K487E
The data set can be described thus: ALDH2 enzymatic assay (NADH at 340 nm), recombinant wild type enzyme. Type of data set: biochemical. More on the design: key: −: no activation or inhibition; +: activation less than control 1; ++: activation similar to control 1, within 10%; +++: activation more than control 1 and less than control (compound 161); ++++: activation similar to compound 161, within 10%. The following applies: activation relative to benchmarks control 1 and compound 161.

A further data set can be described thus: Plasma stability, human. Type of data set: in vitro ADME. The note with it: plasma. Here is the method: as §1

Sequence of CYP2C19 (P33261 whole entry): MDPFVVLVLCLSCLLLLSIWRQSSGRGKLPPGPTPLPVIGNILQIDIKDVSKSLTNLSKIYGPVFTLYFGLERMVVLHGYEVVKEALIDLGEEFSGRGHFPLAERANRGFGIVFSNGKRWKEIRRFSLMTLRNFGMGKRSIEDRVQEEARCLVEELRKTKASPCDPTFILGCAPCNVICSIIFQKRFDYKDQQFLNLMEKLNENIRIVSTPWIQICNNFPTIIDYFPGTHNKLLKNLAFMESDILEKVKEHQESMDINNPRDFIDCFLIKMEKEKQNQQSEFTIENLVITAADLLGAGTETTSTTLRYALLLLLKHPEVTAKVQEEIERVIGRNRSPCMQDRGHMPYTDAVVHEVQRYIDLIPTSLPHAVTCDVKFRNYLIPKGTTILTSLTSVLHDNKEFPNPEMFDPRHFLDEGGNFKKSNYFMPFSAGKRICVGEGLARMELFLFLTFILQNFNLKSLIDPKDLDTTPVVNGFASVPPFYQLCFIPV
Sequence of CYP2C9 (P11712 whole entry): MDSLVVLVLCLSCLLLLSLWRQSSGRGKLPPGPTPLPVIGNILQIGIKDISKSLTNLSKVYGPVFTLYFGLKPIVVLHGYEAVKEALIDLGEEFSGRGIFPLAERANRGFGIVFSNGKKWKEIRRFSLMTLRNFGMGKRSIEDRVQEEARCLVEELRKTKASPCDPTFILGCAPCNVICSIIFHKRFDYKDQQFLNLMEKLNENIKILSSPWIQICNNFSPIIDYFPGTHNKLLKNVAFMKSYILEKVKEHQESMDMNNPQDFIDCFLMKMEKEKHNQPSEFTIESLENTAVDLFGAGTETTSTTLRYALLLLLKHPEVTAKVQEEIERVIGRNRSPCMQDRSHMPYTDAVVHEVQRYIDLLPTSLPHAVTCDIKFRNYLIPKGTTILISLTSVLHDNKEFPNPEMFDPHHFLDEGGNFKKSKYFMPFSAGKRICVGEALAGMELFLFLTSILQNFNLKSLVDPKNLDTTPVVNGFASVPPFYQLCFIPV
Sequence of CYP3A4 (P08684 whole entry): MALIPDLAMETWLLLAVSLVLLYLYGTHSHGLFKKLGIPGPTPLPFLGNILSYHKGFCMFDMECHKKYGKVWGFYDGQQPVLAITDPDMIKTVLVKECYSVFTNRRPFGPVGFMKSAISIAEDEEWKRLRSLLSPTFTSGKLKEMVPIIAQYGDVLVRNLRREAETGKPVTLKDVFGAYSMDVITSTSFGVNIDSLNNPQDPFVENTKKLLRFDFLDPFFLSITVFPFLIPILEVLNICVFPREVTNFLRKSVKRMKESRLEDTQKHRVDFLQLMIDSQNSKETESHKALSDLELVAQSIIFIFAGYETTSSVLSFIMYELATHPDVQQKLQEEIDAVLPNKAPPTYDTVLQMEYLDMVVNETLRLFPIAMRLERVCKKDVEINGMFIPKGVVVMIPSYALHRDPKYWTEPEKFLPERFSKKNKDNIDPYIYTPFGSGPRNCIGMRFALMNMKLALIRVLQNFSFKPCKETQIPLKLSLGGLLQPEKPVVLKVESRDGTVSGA
Sequence of CYP2D6 (P10635 whole entry): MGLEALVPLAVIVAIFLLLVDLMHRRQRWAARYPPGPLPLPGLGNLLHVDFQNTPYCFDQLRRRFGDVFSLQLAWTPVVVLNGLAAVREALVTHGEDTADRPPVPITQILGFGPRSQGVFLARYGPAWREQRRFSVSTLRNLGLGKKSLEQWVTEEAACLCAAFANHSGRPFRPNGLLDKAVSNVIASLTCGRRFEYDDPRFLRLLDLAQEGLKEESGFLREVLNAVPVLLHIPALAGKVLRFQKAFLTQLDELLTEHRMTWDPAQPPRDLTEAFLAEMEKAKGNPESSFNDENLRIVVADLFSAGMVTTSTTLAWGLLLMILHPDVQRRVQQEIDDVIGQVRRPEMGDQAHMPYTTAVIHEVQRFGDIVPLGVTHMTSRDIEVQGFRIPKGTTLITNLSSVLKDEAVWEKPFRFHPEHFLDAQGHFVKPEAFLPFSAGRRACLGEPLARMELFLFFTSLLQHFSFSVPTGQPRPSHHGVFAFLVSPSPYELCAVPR

As to `O=C(NCc1ccc2c(c1)OCO2)c1c(Cl)cccc1Cl` [Control 1, reference compound], the half-life in the data set “NHPLM stability T1/2” turned out to be 1.57 min; in the data set “HLM stability T1/2”, 21.2 min; in “MLM stability T1/2”, 0.753 min; in “RLM stability T1/2”, 1.33 min. Further, the fraction unbound in data set [1] was 0.037; in [3] it was 0.025. For the same molecule, the “ALDH2 (mutant)” value in data set [2] is on record as “++”. In addition, in “Caco-2 permeability” (A-B, read-out: Caco-2 Papp A-B), the apical-to-basolateral permeability (Papp A→B) was 16.6 ×10⁻⁶ cm/s. Also, in “Caco-2 permeability” (B-A), the basolateral-to-apical permeability (Papp B→A) worked out at 11.7 ×10⁻⁶ cm/s. The efflux ratio in “Caco-2 permeability” (ratio, read-out: Caco-2 Papp B-A/A-B) stood at 0.7. In “Aqueous solubility”, the “Aqu. Solu.” value was 12 µg/mL. The Plasma stability Rat in the data set “Plasma stability, rat” turned out to be 100%. For the same molecule, the inhibition at 10 µM against CYP2C9 is 16.3%; on CYP1A2, 31.9%; on CYP2C19, 72.4%; on CYP2D6, 9.1%; at CYP3A4, 83.5%. The same molecule came in with a logD in the data set “LogD (pH 7.4)” of 3.4. For the same molecule, on human ALDH2 wild type, the “ALDH2 (wild-type)” value is on record as “++”. The Plasma stability Human in the data set “Plasma stability, human” was 100%.
